Results taken from paper PMC10786919, “Design-rules for stapled peptides with in vivo activity and their application to Mdm2/X antagonists” (Nature Communications, 2024).
In brackets after ≈: the same amount, converted by molar mass. Read-outs that look alike come from different tables or passages of the source. Positions of bridges follow the written chain, without caps; N, C: chain ends. Non-standard residues stand in square brackets, D forms with d. Residues, ends and D or L forms follow the SMILES beside them. Lys(N3) = [N-]=[N+]=NCCCC[C@H](N)C(=O)O; R8 = C=CCCCCCC[C@@](C)(N)C(=O)O; Cba = N[C@@H](CC1CCC1)C(=O)O; S5 = C=CCCC[C@](C)(N)C(=O)O; βAla = NCCC(=O)O

How the values were obtained:
[1] = Experimental LogD (partition coefficient); details: for logD: not stated, Partition Coeff LogD
[2] = Lactate dehydrogenase (LDH) release assay; format: cell-based
Summary of the method: (§1)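 HCT116 cells stably carrying a p53-responsive β-lactamase reporter, seeded at 8000 cells/well, exposed to compound with 0.5% final DMSO. LDH release read with the CytoTox-ONE membrane integrity kit. Values are geometric means of at least three biological replicates.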

HCT116 cells = experiment: Lactate dehydrogenase (LDH) release assay; format: cell-based
Summary of the method: as §1

[3] = Solubility assay (kinetic solubility, PBS pH 7); format: physicochemical; details: for solubility kinetic: pH 7, aqueous buffer, kinetic from dmso stock, read-out: Solubility
Summary of the method: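 Reference standards were made by diluting the 10 mM stock to 100 µM in acetonitrile:methanol:DMSO 10:80:10. Solubility in µM was calculated as the sample peak area divided by the standard peak area, multiplied by the standard concentration.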

[4] = Nanoclick permeability assay
Summary of the method: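 Azido-peptide permeability was read as loss of NanoBRET signal (donor 450 nm, acceptor 610 nm) after adding NanoBret618-azide at 10 μM final.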

[5] = 0% FBS 4Hr, read-out: LDH: Cytotoxicity assay EC50
[6] = 10% FBS 4Hr, read-out: LDH: Cytotoxicity assay EC50

Row | Compound | EPSA (physchem) [A^2] | logD [1] | EC50 [2, 5] [µM] | LDH: Cytotoxicity assay % Effect (HCT116 cells; 0% FBS 4Hr) [%] | LDH: Cytotoxicity assay % Effect (HCT116 cells; 0% FBS 16Hr) [%] | solubility kinetic ([3]; pH 7, PBS) [µM] | cell entry EC50 [4] [µM] | Partition Coeff LogD [1] | Partition Coeff LogD ([1]; experimental) | EC50 [2, 6] [µM] | LDH: Cytotoxicity assay % Effect (HCT116 cells; 10% FBS 4Hr) [%] | Solubility [3] | Solubility ([3]; pH 7, PBS) | EC50 ([2]; 4 hours, 0% serum, read-out: LDH Cytotoxicity assay EC50) [µM]
1 | CC(=O)N[C@@H](CCCCN=[N+]=[N-])C(=O)NCCC(=O)N[C@@H](C)C(=O)N[C@H](C(=O)N[C@@H](Cc1ccccc1)C(=O)N[C@]1(C)CCCCCCC=CCCC[C@@](C)(C(=O)N[C@@H](CO)C(=O)N[C@@H](C)C(=O)N[C@@H](C)C(N)=O)NC(=O)[C@H](CC2CCC2)NC(=O)[C@H](CCC(N)=O)NC(=O)[C@H](C)NC(=O)[C@H](Cc2c[nH]c3ccccc23)NC(=O)[C@H](Cc2ccc(O)cc2)NC(=O)[C@H](CCC(=O)O)NC1=O)[C@@H](C)O [MP-952, AZIDE-ATSP-7041 (L1A)] | 223 | 2.73 | > 50 | 11.9 | 8.95 | 109 (≈ 210 µg/mL) | 0.192 |  |  |  |  |  |  | 
2 | CC(=O)N[C@@H](CCCCN=[N+]=[N-])C(=O)NCCC(=O)N[C@@H](CC(C)C)C(=O)N[C@@H](C)C(=O)N[C@@H](Cc1ccccc1)C(=O)N[C@]1(C)CCCCCCC=CCCC[C@@](C)(C(=O)N[C@@H](CO)C(=O)N[C@@H](C)C(=O)N[C@@H](C)C(N)=O)NC(=O)[C@H](CC2CCC2)NC(=O)[C@H](CCC(N)=O)NC(=O)[C@H](C)NC(=O)[C@H](Cc2c[nH]c3ccccc23)NC(=O)[C@H](Cc2ccc(O)cc2)NC(=O)[C@H](CCC(=O)O)NC1=O [MP-953, AZIDE-ATSP-7041 (T2A)] (Ac-[Lys(N3)][βAla]LAF[R8]EYWAQ[Cba][S5]SAA-NH2; staple 6-13) | 221 | 2.93 | > 50 | 11.05 | -0.16 | 186 (≈ 361 µg/mL) | 0.494 |  |  |  |  |  |  | 
3 | CC(=O)N[C@@H](CCCCN=[N+]=[N-])C(=O)NCCC(=O)N[C@@H](CC(C)C)C(=O)N[C@H](C(=O)N[C@@H](Cc1ccccc1)C(=O)N[C@]1(C)CCCCCCC=CCCC[C@@](C)(C(=O)N[C@@H](CO)C(=O)N[C@@H](C)C(=O)N[C@@H](C)C(N)=O)NC(=O)[C@H](CC2CCC2)NC(=O)[C@H](CCC(N)=O)NC(=O)[C@H](C)NC(=O)[C@H](Cc2c[nH]c3ccccc23)NC(=O)[C@H](Cc2ccc(O)cc2)NC(=O)[C@H](C)NC1=O)[C@@H](C)O [MP-954, AZIDE-ATSP-7041 (E5A)] (Ac-[Lys(N3)][βAla]LTF[R8]AYWAQ[Cba][S5]SAA-NH2; staple 6-13) | 205 |  | > 50 | 9.323 | -0.76 |  | 0.217 | Poorly Behaved | P.B. | > 50 | 15.23 | P.B. | Poorly Behaved | 
4 | CC(=O)N[C@@H](CCCCN=[N+]=[N-])C(=O)NCCC(=O)N[C@@H](CC(C)C)C(=O)N[C@H](C(=O)N[C@@H](Cc1ccccc1)C(=O)N[C@]1(C)CCCCCCC=CCCC[C@@](C)(C(=O)N[C@@H](CO)C(=O)N[C@@H](C)C(=O)N[C@@H](C)C(N)=O)NC(=O)[C@H](CC2CCC2)NC(=O)[C@H](C)NC(=O)[C@H](C)NC(=O)[C@H](Cc2c[nH]c3ccccc23)NC(=O)[C@H](Cc2ccc(O)cc2)NC(=O)[C@H](CCC(=O)O)NC1=O)[C@@H](C)O [MP-955, AZIDE-ATSP-7041 (Q9A)] (Ac-[Lys(N3)][βAla]LTF[R8]EYWAA[Cba][S5]SAA-NH2; staple 6-13) | 215 | 2.94 | > 50 | 21.34 |  | 86.5 (≈ 165 µg/mL) | 0.582 |  |  | > 50 | -4.376 |  |  | 
5 | CC(=O)N[C@@H](CCCCN=[N+]=[N-])C(=O)NCCC(=O)N[C@@H](C)C(=O)N[C@@H](C)C(=O)N[C@@H](Cc1ccccc1)C(=O)N[C@]1(C)CCCCCCC=CCCC[C@@](C)(C(=O)N[C@@H](CO)C(=O)N[C@@H](C)C(=O)N[C@@H](C)C(N)=O)NC(=O)[C@H](CC2CCC2)NC(=O)[C@H](CCC(N)=O)NC(=O)[C@H](C)NC(=O)[C@H](Cc2c[nH]c3ccccc23)NC(=O)[C@H](Cc2ccc(O)cc2)NC(=O)[C@H](CCC(=O)O)NC1=O [MP-957, AZIDE-ATSP-7041 (L1A,T2A)] (Ac-[Lys(N3)][βAla]AAF[R8]EYWAQ[Cba][S5]SAA-NH2; staple 6-13) | 226 | 2.69 | 17.1 | 25.16 |  | 101 (≈ 192 µg/mL) | 0.125 |  |  |  |  |  |  | 17.1
